Measured values from US20230105212A1, “BIPHENYL DERIVATIVE INHIBITOR, PREPARATION METHOD THEREFOR AND USE THEREOF” (SHANGHAI HANSOH BIOMEDICAL CO., LTD., priority 2020, published 2023).
pEC50, pIC50: −log10 of the molar value. Read-outs that look alike come from different tables or passages of the source.

Experiments:
[1] = biological target: T1, human PD-1/PD-L1 binding (Homo sapiens, UniProt Q9NZQ7); test: Inhibition of human PD-1/PD-L1 binding (TR-FRET/HTRF)
T1 construct: PD-L1-His protein (19 to 238 amino acids) (Abcam #ab167713); purchased Abcam (PD-L1-His); R&D (PD-1-Fc) ab167713; 1086-PD
Method in brief: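 PD-L1-His (aa 19–238, diluted to 10 nM) and PD-1-Fc (aa 25–167, diluted to 20 nM) incubated with compounds (10 μM or 1 μM top, 3-fold, 11 doses) 60 min at room temperature, then anti-6HIS Eu cryptate/anti-human IgG-XL665 added for 3 h RT or overnight 4 °C. HTRF 665/620 nm ratio gave inhibition and IC50.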

[2] = tested on: CHO-PDL1/Jurkat-PD1 cell pathway; test: Inhibition of CHO-PDL1/Jurkat-PD1 cell pathway (NFAT luciferase reporter); type: cell-based; conditions: for pEC50: 6 hours incubation, luciferase signal; for maximal fold induction: relative to the signal value of the non-dosed group, read-out: Maximum induction fold
Method in brief: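 CHO-K1 cells stably expressing PD-L1, plated overnight, then co-cultured with PD-1/NFAT-luc2 Jurkat cells plus compounds in RPMI 1640 with 2% FBS for 6 h at 37 °C. Luminescence read after One-Glo, 10 min at RT. EC50 fitted from the concentration–signal curve; maximum induction fold calculated relative to the non-dosed group.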

[3] = TR-FRET, PD-L1-His and PD-1-Fc, read-out: PD-1/PD-L1 binding IC50

T1 sequence (Q9NZQ7 19-238): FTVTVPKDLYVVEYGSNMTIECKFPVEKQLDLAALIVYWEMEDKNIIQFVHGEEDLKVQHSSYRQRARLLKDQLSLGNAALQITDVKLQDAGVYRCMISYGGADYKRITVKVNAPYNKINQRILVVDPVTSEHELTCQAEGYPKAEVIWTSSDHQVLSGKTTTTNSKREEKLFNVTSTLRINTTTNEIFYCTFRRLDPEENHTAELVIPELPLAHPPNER

Structure (SMILES) | pIC50 [1, 3] | pEC50 [2] | maximal fold induction [2] | pIC50 [1]
COc1nc(-c2cccc(-c3cccc(NC(=O)c4nc5c(n4C)CCN(C)C5)c3Cl)c2Cl)cnc1CN1CC(NC(C)=O)C1 [Embodiment 218, N-(3′-(5-((3-Acetylaminoazetidin-1-yl)methyl)-6-methoxypyrazin-2-yl)-2,2′-dichloro-[1,1′-biphenyl]-3-yl)-1,5-dimethyl-4,5,6,7-tetrahydro-1H-imidazo[4,5-c]pyridine-2-carboxamide] | 8.43 | 7.27 | 2.8 | –
COc1nc(-c2cccc(-c3cccc(NC(=O)c4nc5c(n4C)CCN(C)C5)c3Cl)c2Cl)cnc1CN1CC2(C1)CN(C(C)=O)C2 [Embodiment 152, N-(3′-(5-((6-Acetyl-2,6-diazaspiro[3.3]heptan-2-yl)methyl)-6-methoxypyrazin-2-yl)-2,2′-dichloro-[1,1′-biphenyl]-3-yl)-1,5-dimethyl-4,5,6,7-tetrahydro-1H-imidazo[4,5-c]pyridine-2-carboxamide] | 8.89 | 7.18 | 3.4 | –
COc1nc(-c2cccc(-c3cccc(NC(=O)c4nc5c(n4C)CCN(C)C5)c3Cl)c2Cl)ccc1CN1CC2(C1)CN(C(=O)C(C)C)C2 [Embodiment 186, N-(2,2′-Dichloro-3′-(5-((6-isobutyryl-2,6-diazaspiro[3.3]heptan-2-yl)methyl)-6-methoxypyridin-2-yl)-[1,1′-biphenyl]-3-yl)-1,5-dimethyl-4,5,6,7-tetrahydro-1H-imidazo[4,5-c]pyridine-2-carboxamide] | 8.09 | 7.21 | 3 | –
COc1nc(-c2cccc(-c3cccc(NC(=O)c4nc5c(n4C)CCN(C)C5)c3Cl)c2Cl)ncc1CN1CC(CO)C1 [Embodiment 223, N-(2,2′-Dichloro-3′-(5-((3-(hydroxymethyl)azetidin-1-yl)methyl)-4-methoxypyrimidin-2-yl)-[1,1′-biphenyl]-3-yl)-1,5-dimethyl-4,5,6,7-tetrahydro-1H-imidazo[4,5-c]pyridine-2-carboxamide] | 8.62 | 7.14 | 3.3 | –
COc1nc(-c2cccc(-c3cccc(NC(=O)c4nc5c(n4C)CCN(C)C5)c3Cl)c2Cl)ccc1CN1CC2(C1)CN(S(C)(=O)=O)C2 [Embodiment 192] | 8.05 | 7.07 | 3.8 | –
COc1nc(-c2cccc(-c3cccc(NC(=O)c4nc5c(n4C)CCN(C)C5)c3Cl)c2Cl)ccc1CN1CC2(C1)CN(C(C)=O)C2 [Embodiment 123, N-(3′-(5-((6-Acetyl-2,6-diazaspiro[3.3]heptan-2-yl)methyl)-6-methoxypyridin-2-yl)-2,2′-dichloro-[1,1′-biphenyl]-3-yl)-1,5-dimethyl-4,5,6,7-tetrahydro-1H-imidazo[4,5-c]pyridine-2-carboxamide] | 8.80 | 7.57 | 3.4 | –
CNC(=O)CNCc1cnc(C(=O)Nc2cccc(-c3cccc(NC(=O)c4nc5c(n4C)CCN(C)C5)c3Cl)c2C)cc1OC [Embodiment 95, N-(2-Chloro-3′-(4-methoxy-5-(((2-(methylamino)-2-carbonylethyl)amino)methyl)picolinamido)-2′-methyl-[1,1′-biphenyl]-3-yl)-1,5-dimethyl-4,5,6,7-tetrahydro-1H-imidazo[4,5-c]pyridine-2-carboxamide] | 8.62 | 7.03 | 3.8 | –
COc1nc(-c2cccc(-c3cccc(NC(=O)c4nc5c(n4C)CCN(C)C5)c3Cl)c2Cl)ccc1CN1CC2(CC(NC(C)=O)C2)C1 [Embodiment 234, N-(3′-(5-((6-Acetylamino-2-azaspiro[3.3]heptan-2-yl)methyl)-6-methoxypyridin-2-yl)-2,2′-dichloro-[1,1′-biphenyl]-3-yl)-1,5-dimethyl-4,5,6,7-tetrahydro-1H-imidazo[4,5-c]pyridine-2-carboxamide] | 8.60 | 7.11 | 4.7 | –
COc1nc(-c2cccc(-c3cccc(NC(=O)c4nc5c(n4C)CCN(C)C5)c3Cl)c2Cl)ccc1CN1CC(O)(CO)C1 [Embodiment 173, N-(2,2′-Dichloro-3′-(5-((3-hydroxy-3-(hydroxymethyl)azetidin-1-yl)methyl)-6-methoxypyridin-2-yl)-[1,1-biphenyl]-3-yl)-1,5-dimethyl-4,5,6,7-tetrahydro-1H-imidazo[4,5-c]pyridine-2-carboxamide] | 8.52 | 7.09 | 3.7 | –
COc1nc(-c2cccc(-c3cccc(NC(=O)c4nc5c(n4C)CCN(C)C5)c3Cl)c2Cl)ccc1CN1CC(F)C1 [Embodiment 120, N-(2,2′-Dichloro-3′-(5-((3-fluoroazetidin-1-yl)methyl)-6-methoxypyridin-2-yl)-[1,1′-biphenyl]-3-yl)-1,5-dimethyl-4,5,6,7-tetrahydro-1H-imidazo[4,5-c]pyridine-2-carboxamide] | 8.13 | 7.15 | 3.2 | –
CCC(=O)N1CC2(CN(Cc3ccc(-c4cccc(-c5cccc(NC(=O)c6nc7c(n6C)CCN(C)C7)c5Cl)c4Cl)nc3OC)C2)C1 [Embodiment 188, N-(2,2′-Dichloro-3′-(6-methoxy-5-((6-propionyl-2,6-diazaspiro[3.3]heptan-2-yl)methyl)pyridin-2-yl)-[1,1′-biphenyl]-3-yl)-1,5-dimethyl-4,5,6,7-tetrahydro-1H-imidazo[4,5-c]pyridine-2-carboxamide] | – | 7.03 | 3.8 | 8.20
COc1nc(-c2cccc(-c3cccc(NC(=O)c4nc5c(n4C)CCN(C)C5)c3Cl)c2Cl)ccc1CNC(CO)CO [Embodiment 174, N-(2,2′-Dichloro-3′-(5-(((1,3-dihydroxypropan-2-yl)amino)methyl)-6-methoxypyridin-2-yl)-[1,1′-biphenyl]-3-yl)-1,5-dimethyl-4,5,6,7-tetrahydro-1H-imidazo[4,5-c]pyridine-2-carboxamide] | 8.52 | 7.18 | 3.5 | –
